# Laboratory results as given in patent US9993494B2, “Compositions and methods for treating fibrotic disease” (eFFECTOR Therapeutics, Inc., priority 2014, dated 2018).
# System: normal human lung fibroblasts
# Assay: Ribosomal profiling: translational efficiency in TGFβ-treated fibroblasts
# Type: cell-based
# Conditions: TGFβ-treated fibroblasts
# In short: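 Genome-wide RPF and total RNA libraries (ARTseq, RNA-Seq) were made from lysates of cycloheximide-treated, PBS-washed cells. After trimming and human-genome mapping, per-gene coding-region counts were compared between RPF and RNA for translational efficiency. Genes scoring low in either fraction were dropped.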
compound,measurement,setting,value
"CC(C=CC(=O)NO)=CC(C)C(=O)c1ccc(N(C)C)cc1 (stereo not drawn) [TSA, 7-[4-(dimethylamino)phenyl]-N-hydroxy-4,6-dimethyl-7-oxohepta-2,4-dienamide]",renormalizing the translational profile of RPL9,ENSG00000163682,− (− = <0.9)
same,renormalizing the translational profile of RHOBTB3,ENSG00000164292,− (− = <0.9)
same,renormalizing the translational profile of RPL36AL,ENSG00000165502,− (− = <0.9)
same,renormalizing the translational profile of RPL27A,ENSG00000166441,− (− = <0.9)
same,renormalizing the translational profile of RP11-382A20.3.1,ENSG00000166503,− (− = <0.9)
same,renormalizing the translational profile of ANKDD1A,ENSG00000166839,− (− = <0.9)
same,renormalizing the translational profile of RPL13,ENSG00000167526,− (− = <0.9)
same,renormalizing the translational profile of EEF2,ENSG00000167658,+ (+ = 0.9 to 1.5)
same,renormalizing the translational profile of CA5B,ENSG00000169239,+ (+ = 0.9 to 1.5)
same,renormalizing the translational profile of KIAA1024,ENSG00000169330,− (− = <0.9)
same,renormalizing the translational profile of MURC,ENSG00000170681,+ (+ = 0.9 to 1.5)
same,renormalizing the translational profile of HTRA3,ENSG00000170801,− (− = <0.9)
same,renormalizing the translational profile of PDE7B,ENSG00000171408,++ (++ = 1.5 to 2.0)
same,renormalizing the translational profile of LPAR3,ENSG00000171517,++ (++ = 1.5 to 2.0)
same,renormalizing the translational profile of CTPS,ENSG00000171793,− (− = <0.9)
same,renormalizing the translational profile of QARS,ENSG00000172053,− (− = <0.9)
same,renormalizing the translational profile of RPL38,ENSG00000172809,− (− = <0.9)
same,renormalizing the translational profile of MRPL45,ENSG00000174100,− (− = <0.9)
same,renormalizing the translational profile of RPL4,ENSG00000174444,− (− = <0.9)
same,renormalizing the translational profile of RPL15,ENSG00000174748,− (− = <0.9)
same,renormalizing the translational profile of DES,ENSG00000175084,− (− = <0.9)
same,renormalizing the translational profile of EIF3F,ENSG00000175390,− (− = <0.9)
same,renormalizing the translational profile of CLCF1,ENSG00000175505,+ (+ = 0.9 to 1.5)
same,renormalizing the translational profile of AMIGO3,ENSG00000176020,+ (+ = 0.9 to 1.5)
same,renormalizing the translational profile of C14orf49,ENSG00000176438,− (− = <0.9)
same,renormalizing the translational profile of RPLP2,ENSG00000177600,− (− = <0.9)
same,renormalizing the translational profile of IMPDH2,ENSG00000178035,− (− = <0.9)
same,renormalizing the translational profile of DNAJC22,ENSG00000178401,− (− = <0.9)
same,renormalizing the translational profile of RPL35A,ENSG00000182899,− (− = <0.9)
same,renormalizing the translational profile of LENG9,ENSG00000182909,− (− = <0.9)
same,renormalizing the translational profile of C22orf32,ENSG00000183172,− (− = <0.9)
same,renormalizing the translational profile of NPW,ENSG00000183971,− (− = <0.9)
same,renormalizing the translational profile of PDE4B,ENSG00000184588,+ (+ = 0.9 to 1.5)
same,renormalizing the translational profile of ROBO2,ENSG00000185008,− (− = <0.9)
same,renormalizing the translational profile of PTCH1,ENSG00000185920,− (− = <0.9)
same,renormalizing the translational profile of POLR1D,ENSG00000186184,− (− = <0.9)
same,renormalizing the translational profile of DYNC2H1,ENSG00000187240,− (− = <0.9)
same,renormalizing the translational profile of RPL14,ENSG00000188846,+ (+ = 0.9 to 1.5)
same,renormalizing the translational profile of LRRK2,ENSG00000188906,− (− = <0.9)
same,renormalizing the translational profile of NACA,ENSG00000196531,− (− = <0.9)
same,renormalizing the translational profile of LAMB3,ENSG00000196878,− (− = <0.9)
same,renormalizing the translational profile of PCBP2,ENSG00000197111,+ (+ = 0.9 to 1.5)
same,renormalizing the translational profile of MAP3K5,ENSG00000197442,+ (+ = 0.9 to 1.5)
same,renormalizing the translational profile of RPL37A,ENSG00000197756,− (− = <0.9)
same,renormalizing the translational profile of RPL12,ENSG00000197958,− (− = <0.9)
same,renormalizing the translational profile of LPAR1,ENSG00000198121,− (− = <0.9)
same,renormalizing the translational profile of RPL23A,ENSG00000198242,− (− = <0.9)
same,renormalizing the translational profile of PLN,ENSG00000198523,− (− = <0.9)
same,renormalizing the translational profile of RPL10A,ENSG00000198755,− (− = <0.9)
same,renormalizing the translational profile of CES1,ENSG00000198848,− (− = <0.9)
same,renormalizing the translational profile of RPL39,ENSG00000198918,− (− = <0.9)
same,renormalizing the translational profile of CARD16,ENSG00000204397,− (− = <0.9)
same,renormalizing the translational profile of MICA,ENSG00000204520,− (− = <0.9)
same,renormalizing the translational profile of GNB2L1,ENSG00000204628,− (− = <0.9)
same,renormalizing the translational profile of RPL17,ENSG00000215472,− (− = <0.9)
same,renormalizing the translational profile of RPL41,ENSG00000229117,− (− = <0.9)
same,renormalizing the translational profile of ARPC1A,ENSG00000241685,+ (+ = 0.9 to 1.5)
same,renormalizing the translational profile of CHCHD10,ENSG00000250479,− (− = <0.9)
same,renormalizing the translational profile of EEF1G,ENSG00000254772,− (− = <0.9)
same,number of genes whose translational efficiency was uniquely modulated by the compound,duplicate ribosomal profiles,13 genes
same,effect in renormalizing the translational profile of the gene,gene RPS2 (ENSG00000140988),− (− = <0.9)
same,effect in renormalizing the translational profile of the gene,gene RPS3 (ENSG00000149273),− (− = <0.9)
same,effect in renormalizing the translational profile of the gene,gene RPS3A (ENSG00000145425),− (− = <0.9)
same,effect in renormalizing the translational profile of the gene,gene RPS4X (ENSG00000198034),− (− = <0.9)
same,effect in renormalizing the translational profile of the gene,gene RPS4Y1 (ENSG00000129824),− (− = <0.9)
same,effect in renormalizing the translational profile of the gene,gene RPS5 (ENSG00000083845),− (− = <0.9)
